# Target: T1, human TMEM16A (TMEM16Aabc variant) (Homo sapiens, UniProt Q5XXA6, DEL476-501)
# T1 sequence (Q5XXA6 with tags, fused parts or gaps isoform Q5XXA6-5 DEL539-564): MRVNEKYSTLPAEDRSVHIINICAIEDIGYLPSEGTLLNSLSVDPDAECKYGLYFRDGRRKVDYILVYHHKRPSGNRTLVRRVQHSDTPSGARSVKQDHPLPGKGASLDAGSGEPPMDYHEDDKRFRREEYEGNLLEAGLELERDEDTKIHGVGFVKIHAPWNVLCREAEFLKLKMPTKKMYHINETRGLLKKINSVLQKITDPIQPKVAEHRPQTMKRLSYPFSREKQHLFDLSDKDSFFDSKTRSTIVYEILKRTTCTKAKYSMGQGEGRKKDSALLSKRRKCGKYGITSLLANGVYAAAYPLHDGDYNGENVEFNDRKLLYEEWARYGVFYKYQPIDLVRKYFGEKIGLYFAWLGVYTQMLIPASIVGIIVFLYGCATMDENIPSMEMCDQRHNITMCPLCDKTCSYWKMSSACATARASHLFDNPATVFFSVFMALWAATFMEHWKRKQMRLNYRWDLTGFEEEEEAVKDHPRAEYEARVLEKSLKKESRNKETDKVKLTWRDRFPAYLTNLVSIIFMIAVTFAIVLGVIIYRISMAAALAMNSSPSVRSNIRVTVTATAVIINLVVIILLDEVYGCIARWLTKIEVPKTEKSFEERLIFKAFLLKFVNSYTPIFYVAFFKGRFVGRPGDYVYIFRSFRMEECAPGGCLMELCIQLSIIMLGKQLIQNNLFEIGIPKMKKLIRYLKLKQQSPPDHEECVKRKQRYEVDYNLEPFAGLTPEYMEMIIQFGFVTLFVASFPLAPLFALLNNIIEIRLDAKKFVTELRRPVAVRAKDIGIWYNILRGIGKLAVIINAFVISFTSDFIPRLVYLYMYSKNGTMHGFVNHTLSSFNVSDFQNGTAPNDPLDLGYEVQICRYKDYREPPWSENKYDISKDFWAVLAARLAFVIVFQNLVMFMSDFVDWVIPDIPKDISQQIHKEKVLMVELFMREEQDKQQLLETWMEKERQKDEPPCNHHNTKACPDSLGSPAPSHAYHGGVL
# Assay: Automated whole-cell patch clamp (Qpatch) TMEM16A potentiator assay in recombinant cells
# Assay type: cell-based
# Conditions: FRT cells stably expressing human TMEM16A, intracellular calcium at EC20; for % Potentiation @ 3.33 μM Avg: 3.33 μM solution of test compound, percentage increase of baseline TMEM16A current, peak current at +70 mV; for EC50: calculated from cumulative concentration response curve, whole-cell patch clamp
# Description: Automated Whole-Cell Patch Clamp Assay to Detect TMEM16A Activity in Recombinant Cells
# Cell Culture and Preparation
# Fisher rat thyroid (FRT) cells stably expressing human TMEM16A (TMEM16Aabc variant; Dr Luis Galietta, Insituto Giannina, Italy) were cultured in T-75 flasks in Hams F-12 media with Coon's modification (Sigma) supplemented with 10% (v/v) foetal bovine serum, penicillin-streptomycin (10,000 U/mL/10000 μg/mL), G-418 (750 μg/mL), L-glutamine (2 mM) and sodium bicarbonate solution (7.5% v/v). At ˜90% confluence cells were harvested for experiments by detachment with a 2:1 (v/v) mixture of Detachin (BMS Biotechnology) and 0.25% (w/v) trypsin-EDTA. Cells were diluted to a density of 3.5-4.5×10^6 cells/mL with media consisting of CHO-S-SFM II (Sigma), 25 mM HEPES (Sigma) and Soy bean trypsin inhibitor (Sigma).
# Whole-Cell Patch Clamp Recording
# FRT-TMEM16A cells were whole-cell patch clamped using an automated planar patch clamp system (Qpatch, Sophion). Briefly, once high resistance (GOhm) seals were established between the cells and the planar recording array the patch was ruptured using suction pulses to establish the whole-cell recording configuration of the patch clamp technique. The assay employed the following solutions (all reagents Sigma):
# Intracellular solution (mM): N-methyl-D-glucamine 130, CaCl2 18.2, MgCl2 1, HEPES 10, EGTA 10, BAPTA 20, Mg-ATP 2, pH 7.25, 325 mOsm with sucrose.
# Extracellular solution (mM): N-methyl-D-glucamine 130, CaCl2 2, MgCl2 1, HEPES 10, pH 7.3, 320 mOsm with sucrose.
# The intracellular solution buffers intracellular calcium at levels required to give ˜20% activation of the maximal TMEM16A mediated current (EC20 for calcium ions). Cells were voltage clamped at a holding potential of −70 mV and a combined voltage step (to +70 mV)/ramp (−90 my to +90 mV) was applied at 0.05 Hz. After a period of current stabilisation test compounds, solubilised in 100% (v/v) DMSO and subsequently diluted into extracellular solution, were applied to generate a cumulative concentration response curve. Each concentration of test compound was incubated for 5 minutes before addition of the next concentration. After the final concentration was tested a supramaximal concentration of either a known active positive modulator or the TMEM16A inhibitor, CaCCinhA01 (Del La Fuente et al, 2008) was added to define the upper and lower limits of the assay.
# Compound activity was quantified by measuring the increase in current upon compound addition and expressing this as a percentage increase of baseline TMEM16A current level. Percentage increases in current were determined for each concentration and the data plotted as a function of concentration using either the Qpatch software or Graphpad Prism v6.05 providing the concentration which gave 50% of its maximal effect (EC50) and maximum efficacy (percentage of baseline increase).
# In FIG. 1, IBL equals baseline current, I[#1] equals the peak current during test compound concentration 1 incubation period and so on.
# Peak TMEM16A current at +70 mV was plotted as a function of time over the assay period. Baseline current (IBL) was measured after a period of stabilisation. The increase in current for each compound addition was determined by taking the peak current during the incubation period and subtracting the current from the previous recording period and then expressing this as a percentage of the baseline current. For test compound concentration 1 in FIG. 1 this is:
# For each additional concentration tested the increase in current was determined by subtracting the current from the previous incubation period and normalising the baseline value—for test concentration 2 in FIG. 1 this is:
# The values for each test concentration were plotted as a cumulative function of concentration e.g. for test concentration two this would be the sum of the peak changes measured during concentration one plus concentration two.
Structure (SMILES),% Potentiation @ 3.33 μM Avg [%],EC50 [nM]
"CC(C)(CNC(=O)OC(C)(C)C)CNC(=O)c1ccc2[nH]c(Cc3ccccc3)nc2c1 [Example 19, tert-Butyl N-[3-[(2-benzyl-1H-benzimidazole-5-carbonyl)amino]-2,2-dimethyl-propyl]carbamate]",181.6,936
"CN[C@H](c1ccccc1)c1nc2cc(NC(=O)CC3C4CC5CC(C4)CC3C5)ccc2[nH]1 (stereo partly drawn) [Example 3, 2-(2-Adamantyl)-N-[2-[(R)-methylamino(phenyl)methyl]-1H-benzimidazol-5-yl]acetamide]",108.2,1640
"O=C(CC1C2CC3CC(C2)CC1C3)Nc1ccc2[nH]c(Cc3ccccc3)nc2c1 (stereo not shown) [Example 2, 2-(2-Adamantyl)-N-(2-benzyl-1H-benzimidazol-5-yl)acetamide]",183.6,268
"O=C(NCC1CCCCCC1)c1ccc2oc(Cc3ccccc3O)nc2c1 [Example 10, N-(Cycloheptylmethyl)-2-[(2-hydroxyphenyl)methyl]-1,3-benzoxazole-5-carboxamide]",67.7,122
"O=C(CC1C2CC3CC(C2)CC1C3)Nc1ccc2[nH]c(CCc3ccccc3)nc2c1 (stereo not shown) [Example 2.1, 2-(2-Adamantyl)-N-[2-(2-phenylethyl)-1H-benzimidazol-5-yl]acetamide]",149.1,808
"O=C(CC1C2CC3CC(C2)CC1C3)Nc1ccc2[nH]c(OC3CCOC3)nc2c1 (stereo not shown) [Example 9, 2-(2-Adamantyl)-N-(2-tetrahydrofuran-3-yloxy-1H-benzimidazol-5-yl)acetamide]",87.4,841
"CC(C)(C)c1cc(F)c(CC(=O)Nc2ccc3[nH]c(C4(C(F)(F)F)CC4)nc3c2)cc1O [Example 23, 2-(4-tert-Butyl-2-fluoro-5-hydroxy-phenyl)-N-[2-[1-(trifluoromethyl)cyclopropyl]-1H-benzimidazol-5-yl]acetamide]",153,52
"O=C(CC12CC3CC(CC(C3)C1)C2)Nc1ccc2[nH]c(CC3CCCCO3)nc2c1 (stereo not shown) [Example 1.1, 2-(1-Adamantyl)-N-[2-(tetrahydropyran-2-ylmethyl)-1H-benzimidazol-5-yl]acetamide]",100.5,1100
"CC(C)(CO)c1cc(F)cc(Cc2nc3cc(C(=O)NCC4(C(F)(F)F)CC4)ccc3[nH]2)c1O [Example 32, 2-[[5-Fluoro-2-hydroxy-3-(2-hydroxy-1,1-dimethyl-ethyl)phenyl]methyl]-N-[[1-(trifluoromethyl)cyclopropyl]methyl]-1H-benzimidazole-5-carboxamide]",56.6,227
"O=C(CC12CC3CC(CC(C3)C1)C2)Nc1ccc2cn(Cc3ccccc3)nc2c1 [Example 16, 2-(1-Adamantyl)-N-(2-benzylindazol-6-yl)acetamide]",137.3,502
"O=C(NCC1CCCCCC1)c1ccc2[nH]c(Cc3ccccc3O)nc2c1 [Example 25.3, N-(Cycloheptylmethyl)-2-[(2-hydroxyphenyl)methyl]-1H-benzimidazole-5-carboxamide]",104,76
"O=C(NCC1CCCCCC1)c1ccn2cc(Cc3ccccc3)nc2c1 [Example 15, 2-Benzyl-N-(cycloheptylmethyl)imidazo[1,2-a]pyridine-7-carboxamide]",58.6,1060
"CC(C)(C)c1cc(F)c(Cc2nc3cc(C(=O)NCC4(C(F)(F)F)CC4)ccc3[nH]2)cc1O [Example 21.1, 2-[(4-tert-Butyl-2-fluoro-5-hydroxy-phenyl)methyl]-N-[[1-(trifluoromethyl)cyclopropyl]methyl]-1H-benzimidazole-5-carboxamide]",275,227
"CC(C)(C)c1nc2cc(NC(=O)Cc3cc(Cl)ccc3O)ccc2[nH]1 [Example 18, N-(2-tert-Butyl-1H-benzimidazol-5-yl)-2-(5-chloro-2-hydroxy-phenyl)acetamide]",95.9,156
"CC(C)(O)c1cc(F)c(Cc2nc3cc(C(=O)NCCC(F)(F)F)ccc3[nH]2)cc1O [Example 31, 2-[[2-Fluoro-5-hydroxy-4-(1-hydroxy-1-methyl-ethyl)phenyl]methyl]-N-(3,3,3-trifluoropropyl)-1H-benzimidazole-5-carboxamide]",158,
"O=C(NCC1CCCC1)c1ccc2[nH]c(Cc3ccccc3)nc2c1 [Example 24.1, 2-Benzyl-N-(cyclopentylmethyl)-1H-benzimidazole-5-carboxamide]",106,176
"CC(C)(C)c1nc2ccc(C(=O)NCC3CCCCCC3)cc2[nH]1 [Example 20, 2-tert-Butyl-N-(cycloheptylmethyl)-3H-benzimidazole-5-carboxamide]",85.9,776
"O=C(NCC1CCCCCC1)c1ccc2[nH]c(Cc3ccccc3)nc2c1 [Example 24.2, 2-Benzyl-N-(cycloheptylmethyl)-1H-benzimidazole-5-carboxamide]",137,120
"O=C(CC12CC3CC(CC(C3)C1)C2)Nc1ccc2[nH]c(CNC(=O)OCC(F)(F)F)nc2c1 [Example 6, 2,2,2-Trifluoroethyl N-[[5-[[2-(1-adamantyl)acetyl]amino]-1H-benzimidazol-2-yl]methyl]carbamate]",246.3,1250

# — patent publication US12552770B2, “Compounds for treating respiratory disease” (TMEM16A Limited, priority 2020, dated 2026)
